Test results reported in publication PMC10093836, “Stabilization of the Dimeric State of SARS-CoV-2 Main Protease by GC376 and Nirmatrelvir” (International Journal of Molecular Sciences, 2023).

Target: SARS-CoV-2 Mpro dimer (Severe acute respiratory syndrome coronavirus 2, UniProt P0DTD1)
Assay: SAXS monomer-dimer equilibrium of Mpro in the presence of inhibitors

CC(C)c1nc(CN(C)C(=O)N[C@H](C(=O)N[C@@H](Cc2ccccc2)C[C@H](O)[C@H](Cc2ccccc2)NC(=O)OCc2cncs2)C(C)C)cs1 [RTV, ritonavir]
ΔCp of Mpro dimer dissociation (Mpro alone 1.3 ± 0.4): 4 ± 1 kJ K^−1mol^−1
ΔS^0 of Mpro dimer dissociation (T0 = 298.15 K, Mpro alone −30 ± 10): −70 ± 50 J K^−1mol^−1
ΔH^0 of Mpro dimer dissociation (T0 = 298.15 K, derived parameter of the fit, Mpro alone 21 ± 4): 11 ± 5 kJ/mol
